Reference: patent US6743795B1, “3-nitropyridine derivaives and the pharmaceutical compositions containing said derivatives” (Dong Wha Pharm. Ind. Co. Ltd., priority 1999, dated 2004)

Columns and labels:
HBV = test: Proliferation of HBV in HBV producing cell line HepG 2.2.15 (competitive PCR of culture supernatant); type: cell-based, Hepatitis B virus; conditions: Hepatitis B virus, HepG2.2.15, 168 h, HepG 2.2.15, one week, read-out: Inhibitory effect on the HBV proliferation: Inhibition activity on HBV-RT (%); for inhibition at 0.01 µg/mL: 0.01 μg/ml; for inhibition at 0.1 µg/mL: 0.1 μg/ml; for inhibition at 1 µg/mL: 1 μg/ml
Experimental: <Experiment 2> Inhibitory Effect on the Proliferation of HBV in HBV Producing Cell Line
The following experiment was performed to determine inhibitory effects of compounds of formula 1 on the proliferation of HBV producing cell line.
To test for antiviral effect, replication and proliferation of HBV were measured in HepG 2.2.15, a human liver cancer cell line.
The cell concentration was adjusted to 1×10^5 cells/ml and 1 ml was added to each well of a 24-well cell culture plate, which was then kept in a culture box for 3-4 days at 37° C. under 5% CO2 until cells grew sufficiently, changing culture medium everyday. When the cells matured sufficiently, the test compounds were added to the final concentrations of 0.01, 0.1, and 1 μg/ml. One week after the addition of test compounds, the culture solution was centrifuged at 5,000 rpm for 10 min. 25 μl of supernatant was transferred to a new tube and 5 μl of lysis solution [0.54N NaOH, 0.06% NP40] was added to each tube. After keeping the tube at 37° C. for 1 hr, 30 μl of neutralizing solution [0.09N HCl 0.1MTris-HCl, pH7.4] was added as a reaction solution for competitive polymerase chain reaction (PCR).
PCR was performed using genetic sequence of HBV core protein as a matrix. PCR reaction was carried out by adding 1 unit of Taq polymerase enzyme to 25 pmol of each primer, 250 μM dNTP, 5 μl of PCR reaction solution [0.54N NaOH, 0. 06% NP40, 0.09N HCl, 0.1M Tris-HCl, pH 7.4].
DNA polymerized by PCR was electrophoresed on Agarose gel and quantitatively analyzed using an image analyzer (Gel Doc 1000, Bio-Rad) in order to evaluate the effect of compounds of the present invention on the reduction of HBV proliferation.
3TC (lamivudine) was used as a positive control at the same concentrations as those of the test compounds. The percentage of reduction in HBV proliferation was calculated using the group without test compound as a control and the results are represented in Table 4.

HBV polymerase = biological target: T1, HBV polymerase (Hepatitis B virus genotype A2 subtype adw2, UniProt P03159); test: In vitro reverse transcription activity of HBV polymerase (ELISA-type, DIG/biotin nucleotides); type: biochemical; conditions: read-out: Inhibition activity on HBV-RT (%); for inhibition at 0.01 µg/mL: 0.01 μg/ml test compound; for inhibition at 0.1 µg/mL: 0.1 μg/ml test compound; for inhibition at 1 µg/mL: 1 μg/ml test compound
T1 construct: made in house; host or cells: E. coli
Experimental: <Experiment 1> Inhibitory Effect on the In Vitro Activities of HBV Polymerase in Reverse Transcription
The following in vitro experiment was performed to determine the effect of the compounds of formula 1 on the activity of HBV polymerase during reverse transcription.
The present inventors submitted application for a patent concerning HBV polymerase genetically expressed in and separated from E.coli, the process of its preparation, and the method to measure the enzyme activities (KR 94-3918, KR 96-33998). In the present experiments HBV polymerase was used which had been expressed in E. coli as stated above.
The method used in the present invention to measure in vitro reverse transcribing activities of HBV polymerase is as follows. Basic principles are the same as for ELISA. Nucleotides with biotin or digoxigenin group attached are included as substrates and anti-DIG antibodies attached to peroxidase enzyme recognize the polymerized substrates.
To the wells coated with streptavidin, 20 μl of HBV polymerase, 20 μl of reaction mixture (10 μM each of DIG-UTP and Biotin-UTP, 46 mM Tris-HCl, 266 mM KCl, 27.5 mM MgCl2, 9.2 mM DTT substrate/primer nybrid), and 20 μl of test compound (added to 1, 0.1, and 0.01 μg/ml) were added and allowed to react at 22° C. for 15 hrs. During this reaction, HBV polymerase catalyzes DNA synthesis and digoxigenin and biotin attached to nucleotides form bonds with streptavidin coated on the bottom of wells. When the reaction was done, each well was washed with 250 μl of cleaning buffer (pH 7.0) for 30 seconds, which was repeated five times to remove remaining impurities. 200 μl of anti-DIG-POD antibody was added to each well and allowed to react for 1 hr at 37° C., and the wells were washed with cleaning buffer to remove impurities. 200 μl each of ABTS™, a substrate of peroxidase, was then added and allowed to react at room temperature for 30 min. Absorbance was measured at 405 nm using ELISA reader.
The percentage of reduction in HBV polymerase activities for reverse transcription was calculated using the group without test compound as a control and the results are shown in Table 3.

T1 sequence (P03159 whole entry): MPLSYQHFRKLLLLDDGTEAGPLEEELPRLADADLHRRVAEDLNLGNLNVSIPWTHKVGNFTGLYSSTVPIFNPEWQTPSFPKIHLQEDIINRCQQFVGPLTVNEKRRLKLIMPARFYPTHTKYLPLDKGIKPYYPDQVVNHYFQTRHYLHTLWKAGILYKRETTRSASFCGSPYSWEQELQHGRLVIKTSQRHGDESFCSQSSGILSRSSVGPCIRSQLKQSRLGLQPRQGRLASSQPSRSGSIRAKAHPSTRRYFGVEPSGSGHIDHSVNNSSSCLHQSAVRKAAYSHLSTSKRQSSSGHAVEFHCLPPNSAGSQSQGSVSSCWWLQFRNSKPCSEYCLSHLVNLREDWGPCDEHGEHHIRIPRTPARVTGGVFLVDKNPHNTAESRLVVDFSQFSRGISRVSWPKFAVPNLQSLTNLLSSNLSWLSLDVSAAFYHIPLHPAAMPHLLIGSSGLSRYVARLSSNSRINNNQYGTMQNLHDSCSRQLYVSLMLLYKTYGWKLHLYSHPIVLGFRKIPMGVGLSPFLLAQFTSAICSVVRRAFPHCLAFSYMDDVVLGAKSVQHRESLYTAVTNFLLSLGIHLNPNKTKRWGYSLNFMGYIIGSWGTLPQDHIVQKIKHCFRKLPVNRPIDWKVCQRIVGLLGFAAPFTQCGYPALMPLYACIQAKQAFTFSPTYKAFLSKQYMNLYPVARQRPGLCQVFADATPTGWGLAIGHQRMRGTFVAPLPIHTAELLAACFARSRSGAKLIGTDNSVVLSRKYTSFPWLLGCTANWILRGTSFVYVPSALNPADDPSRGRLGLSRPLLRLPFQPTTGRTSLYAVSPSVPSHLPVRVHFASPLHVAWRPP

inhibition at 0.01 µg/mL (HBV polymerase)	inhibition at 0.1 µg/mL (HBV polymerase)	inhibition at 1 µg/mL (HBV polymerase)	Compound	inhibition at 0.01 µg/mL (HBV)	inhibition at 0.1 µg/mL (HBV)	inhibition at 1 µg/mL (HBV)
40%	59%	80%	Nc1ccc([N+](=O)[O-])c(Nc2ccc3[nH]ncc3c2)n1 [Example 9, 6-amino-2-(1H-5-indazolylamino)-3-nitropyridine]			
20%	34%	55%	O=[N+]([O-])c1ccc(N2CCC(O)CC2)nc1Nc1ccc2[nH]ncc2c1 [Example 28, 6-(4-hydroxy-1-piperidinyl)-2-(1H-5-indazolylamino)-3-nitropyridine]			
41%	52%	75%	CN1CCN(Nc2ccc([N+](=O)[O-])c(Nc3ccc4[nH]ncc4c3)n2)CC1 [Example 17, 2-(1H-5-indazolylamino)-6-(4-methyl-1-piperazinyl)amino-3-nitropyridine]			
10%	35%	66%	C[C@@H](CCO)Nc1ccc([N+](=O)[O-])c(Nc2ccc3cn[nH]c3c2)n1 [Example 13, 6-[(1S)-1-(hydroxyethyl)ethylamino]-2-(1H-6-indazolylamino)-3-nitropyridine]			

The next lines start with the compound.

Compound	inhibition at 0.01 µg/mL (HBV polymerase)	inhibition at 0.1 µg/mL (HBV polymerase)	inhibition at 1 µg/mL (HBV polymerase)	inhibition at 0.01 µg/mL (HBV)	inhibition at 0.1 µg/mL (HBV)	inhibition at 1 µg/mL (HBV)
O=[N+]([O-])c1ccc(NC2CC2)nc1Nc1ccc2[nH]ncc2c1 [Example 8, 6-cyclopropylamino-2-(1H-5-indazolylamino)-3-nitropyridine]	38%	52%	72%	25%	46%	65%
Nc1ccn([C@@H]2CS[C@H](CO)O2)c(=O)n1 [Example 3TC, lamivudine, reference compound]				48%	80%	99%
CN1CCN(c2ccc([N+](=O)[O-])c(Nc3ccc4[nH]ncc4c3)n2)CC1 [Example 25, 2-(1H-5-indazolylamino)-6-(4-methyl-1-piperazinyl)-3-nitropyridine]	35%	54%	88%	25%	46%	83%
